Laboratory results as given in PubChem BioAssay AID256 (DTP/NCI, 2004).
Where “and” joins values, the source holds several entries; their conditions need not be identical. Identical values can stand only once. Inconclusive results and toxic doses are left out. The calls were made as follows: active = survival T/C of 150% or more; inactive = T/C below 125% in these data.

System: CD2F1 mice, L1210 leukemia ip, survival T/C
Test: NCI In Vivo Anticancer Drug Screen. Data for tumor model L1210 Leukemia (intraperitoneal) in CD2F1 (CDF1) mice
Settings: higher = longer survival
Method: The antitumor activity of compounds was measured in mice bearing transplantable tumors. Survival or tumor size were measured and the results are expressed as the measurement made in the treated group (T) divided by the measurement made in the vehicle treated control group (C). The tumor model used in this assay is L1210 Leukemia (intraperitoneal) in CD2F1 (CDF1) mice

[1] = endpoint: mean survival time, dose: 100.0 mg/kg/injection, schedule: Q04DX003 (ip), vehicle: saline with Tween-80
[2] = endpoint: mean survival time, dose: 200.0 mg/kg/injection, schedule: Q04DX003 (ip), vehicle: saline with Tween-80
[3] = endpoint: mean survival time, dose: 400.0 mg/kg/injection, schedule: Q04DX003 (ip), vehicle: saline with Tween-80
[4] = endpoint: mean survival time, dose: 50.0 mg/kg/injection, schedule: Q01DX009 (ip), vehicle: saline with Tween-80

Measured: T/C

COC(=O)C(CC(C)C)NC(=O)C(CSC(c1ccccc1)(c1ccccc1)c1ccccc1)NC(c1ccccc1)(c1ccccc1)c1ccccc1 (stereo not drawn)
inactive: endpoint: mean survival time, dose: 50.0 mg/kg/injection, schedule: Q01DX009 (ip), vehicle: saline 97 % of control | endpoint: mean survival time, dose: 100.0 mg/kg/injection, schedule: Q01DX009 (ip), vehicle: saline 97 % of control | endpoint: mean survival time, dose: 200.0 mg/kg/injection, schedule: Q01DX009 (ip), vehicle: saline 92 % of control | endpoint: mean survival time, dose: 400.0 mg/kg/injection, schedule: Q01DX009 (ip), vehicle: saline 97 % of control

CCN(CC)C(=S)S
inactive: endpoint: mean survival time, dose: 100.0 mg/kg/injection, schedule: Q04DX003 (ip), vehicle: other 94 % of control | endpoint: mean survival time, dose: 200.0 mg/kg/injection, schedule: Q04DX003 (ip), vehicle: other 97 % of control | endpoint: mean survival time, dose: 400.0 mg/kg/injection, schedule: Q04DX003 (ip), vehicle: other 103 % of control

CC(=O)NC1CCCC(C)C1 (stereo not drawn)
inactive: [1] 96 % of control | [2] 96 % of control | [3] 96 % of control

O=C1N(Cl)C2C(N1Cl)N(Cl)C(=O)N2Cl (stereo not drawn)
inactive: endpoint: mean survival time, dose: 25.0 mg/kg/injection, schedule: Q04DX003 (ip), vehicle: saline with Tween-80 98 % of control | endpoint: mean survival time, dose: 50.0 mg/kg/injection, schedule: Q04DX003 (ip), vehicle: saline with Tween-80 104 % of control | [1] 89 % of control

N#CSCCN1C(=O)C2C3CCC(O3)C2C1=O (stereo not drawn)
inactive: endpoint: mean survival time, dose: 25.0 mg/kg/injection, schedule: Q04DX002 (ip), vehicle: saline with Tween-80 103 % of control

Clc1cc(Cl)cc(Nc2nc(C(Cl)(Cl)Cl)nc(C(Cl)(Cl)Cl)n2)c1
inactive: [4] 98 % of control | endpoint: mean survival time, dose: 100.0 mg/kg/injection, schedule: Q01DX009 (ip), vehicle: saline with Tween-80 95 % of control | [1] 89 % of control | endpoint: mean survival time, dose: 200.0 mg/kg/injection, schedule: Q01DX009 (ip), vehicle: saline with Tween-80 90 % of control | [2] 86 % of control

O=C(O)c1ccccc1NO
inactive: [1] 90 % of control | [2] 98 % of control | [3] 90 % of control

COC(=O)C1(C)CCCC2(C)C1CCC13C(O)C(C(C)C)C1CC23 (stereo not drawn)
inactive: endpoint: mean survival time, dose: 100.0 mg/kg/injection, schedule: Q01DX001 (ip), vehicle: saline with Tween-80 86 % of control | endpoint: mean survival time, dose: 200.0 mg/kg/injection, schedule: Q01DX001 (ip), vehicle: saline with Tween-80 91 % of control | endpoint: mean survival time, dose: 400.0 mg/kg/injection, schedule: Q01DX001 (ip), vehicle: saline with Tween-80 97 % of control

CC(=O)OC(Cc1ccc(Cl)cc1)c1ccc(Cl)cc1 (stereo not drawn)
inactive: endpoint: mean survival time, dose: 50.0 mg/kg/injection, schedule: Q04DX002 (ip), vehicle: saline with Tween-80 96 % of control | endpoint: mean survival time, dose: 100.0 mg/kg/injection, schedule: Q04DX002 (ip), vehicle: saline with Tween-80 96 % of control | endpoint: mean survival time, dose: 200.0 mg/kg/injection, schedule: Q04DX002 (ip), vehicle: saline with Tween-80 90 % of control | endpoint: mean survival time, dose: 400.0 mg/kg/injection, schedule: Q04DX002 (ip), vehicle: saline with Tween-80 90 % of control

CSc1ccc2c(c1)C(N1CCN(C)CC1)Cc1ccccc1S2 (stereo not drawn)
inactive: endpoint: mean survival time, dose: 1.56 mg/kg/injection, schedule: Q01DX009 (ip), vehicle: saline with Tween-80 112 % of control | endpoint: mean survival time, dose: 3.12 mg/kg/injection, schedule: Q01DX009 (ip), vehicle: saline with Tween-80 118 % of control and 121 % of control | endpoint: mean survival time, dose: 6.25 mg/kg/injection, schedule: Q01DX009 (ip), vehicle: saline with Tween-80 116 % of control and 122 % of control | endpoint: mean survival time, dose: 12.5 mg/kg/injection, schedule: Q01DX009 (ip), vehicle: saline with Tween-80 115 % of control and 120 % of control | endpoint: mean survival time, dose: 25.0 mg/kg/injection, schedule: Q01DX009 (ip), vehicle: saline with Tween-80 122 % of control and 108 % of control | [4] 114 % of control

O=C1Nc2ccccc2/C1=N/N=P(c1ccccc1)(c1ccccc1)c1ccccc1
inactive: endpoint: median survival time, dose: 50.0 mg/kg/injection, schedule: Q04DX002 (ip), vehicle: saline with Tween-80 100 % of control | endpoint: median survival time, dose: 100.0 mg/kg/injection, schedule: Q04DX002 (ip), vehicle: saline with Tween-80 110 % of control | endpoint: median survival time, dose: 200.0 mg/kg/injection, schedule: Q04DX002 (ip), vehicle: saline with Tween-80 100 % of control | endpoint: median survival time, dose: 400.0 mg/kg/injection, schedule: Q04DX002 (ip), vehicle: saline with Tween-80 100 % of control

O=S(=O)(/C=C\c1ccccc1)Oc1ccccc1
inactive: endpoint: mean survival time, dose: 100.0 mg/kg/injection, schedule: Q01DX001 (ip), vehicle: saline 100 % of control | endpoint: mean survival time, dose: 100.0 mg/kg/injection, schedule: Q04DX003 (ip), vehicle: saline 96 % of control | endpoint: mean survival time, dose: 200.0 mg/kg/injection, schedule: Q01DX001 (ip), vehicle: saline 100 % of control | endpoint: mean survival time, dose: 200.0 mg/kg/injection, schedule: Q04DX003 (ip), vehicle: saline 95 % of control | endpoint: mean survival time, dose: 400.0 mg/kg/injection, schedule: Q01DX001 (ip), vehicle: saline 93 % of control | endpoint: mean survival time, dose: 400.0 mg/kg/injection, schedule: Q04DX003 (ip), vehicle: saline 90 % of control

CC(C)(C)C1COP(=S)(c2ccccc2)OC1 (stereo not drawn)
inactive: endpoint: mean survival time, dose: 25.0 mg/kg/injection, schedule: Q04DX003 (ip), vehicle: Klucel (hydroxypropylcellulose) (HPC) 94 % of control and 103 % of control | endpoint: mean survival time, dose: 50.0 mg/kg/injection, schedule: Q04DX003 (ip), vehicle: Klucel (hydroxypropylcellulose) (HPC) 103 % of control and 97 % of control | endpoint: mean survival time, dose: 100.0 mg/kg/injection, schedule: Q04DX003 (ip), vehicle: Klucel (hydroxypropylcellulose) (HPC) 97 % of control and 102 % of control
